Test results reported in patent publication US10538498B2, “1,3,4-oxadiazole sulfonamide derivative compounds as histone deacetylase 6 inhibitor, and the pharmaceutical composition comprising the same” (Chong Kun Dang Pharmaceutical Corp., priority 2015, dated 2020).

Columns and labels:
human recombinant HDAC6 = molecular target: T1, human recombinant HDAC6 (Homo sapiens, UniProt Q9UBN7); assay: HDAC6 enzyme activity inhibition assay (HDAC Fluorimetric Drug Discovery Kit); type: biochemical; details: for HDAC6 selectivity (fold): HDAC1 vs HDAC6; for IC50: same protocol as the HDAC1 enzyme activity test
T1 construct: purchased Calbiochem 382180
T1 sequence (Q9UBN7 1-1215): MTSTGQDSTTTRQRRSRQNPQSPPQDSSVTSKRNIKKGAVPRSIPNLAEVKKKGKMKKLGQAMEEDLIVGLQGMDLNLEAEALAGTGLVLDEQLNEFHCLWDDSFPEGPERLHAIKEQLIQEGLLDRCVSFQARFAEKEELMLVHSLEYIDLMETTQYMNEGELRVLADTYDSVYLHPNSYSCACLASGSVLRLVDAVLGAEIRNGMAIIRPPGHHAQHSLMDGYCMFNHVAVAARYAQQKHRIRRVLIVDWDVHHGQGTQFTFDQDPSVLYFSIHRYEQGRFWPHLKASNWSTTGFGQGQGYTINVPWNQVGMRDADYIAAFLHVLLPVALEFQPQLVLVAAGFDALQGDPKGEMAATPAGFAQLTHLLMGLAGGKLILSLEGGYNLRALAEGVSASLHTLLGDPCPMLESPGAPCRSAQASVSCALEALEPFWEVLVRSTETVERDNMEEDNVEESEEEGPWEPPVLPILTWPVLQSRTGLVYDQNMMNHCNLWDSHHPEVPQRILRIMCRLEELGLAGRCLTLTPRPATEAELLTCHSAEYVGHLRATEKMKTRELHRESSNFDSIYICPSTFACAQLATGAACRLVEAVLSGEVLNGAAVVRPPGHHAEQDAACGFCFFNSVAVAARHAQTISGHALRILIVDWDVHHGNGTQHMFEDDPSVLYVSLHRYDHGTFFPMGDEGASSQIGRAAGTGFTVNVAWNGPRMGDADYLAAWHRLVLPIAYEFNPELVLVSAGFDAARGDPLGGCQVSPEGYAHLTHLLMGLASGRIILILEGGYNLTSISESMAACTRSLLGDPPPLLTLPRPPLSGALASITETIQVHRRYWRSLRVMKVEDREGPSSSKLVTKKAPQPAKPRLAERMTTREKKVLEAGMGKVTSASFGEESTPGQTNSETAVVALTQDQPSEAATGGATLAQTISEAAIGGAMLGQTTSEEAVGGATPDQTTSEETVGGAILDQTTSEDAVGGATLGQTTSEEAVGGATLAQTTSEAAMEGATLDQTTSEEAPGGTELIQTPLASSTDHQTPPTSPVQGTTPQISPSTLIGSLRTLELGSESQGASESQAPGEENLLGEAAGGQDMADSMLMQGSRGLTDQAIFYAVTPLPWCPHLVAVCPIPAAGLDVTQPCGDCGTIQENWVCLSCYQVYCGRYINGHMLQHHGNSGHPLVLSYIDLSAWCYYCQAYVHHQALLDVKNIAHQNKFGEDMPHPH
Summary of the method: (§1)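 First, compound in 5-fold dilution steps is combined with 0.3 μg enzyme and 10 μM Fluor de Lys-SIRT1 substrate. After 60 min at 30° C, developer is added for 30 min. Fluorescence at Ex 360/Em 460 then gives IC50 values.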

human recombinant HDAC1 = molecular target: T2, human recombinant HDAC1 (Homo sapiens, UniProt Q13547); assay: HDAC1 enzyme activity inhibition assay (HDAC Fluorimetric Drug Discovery Kit); type: biochemical; details: 0.3 μg enzyme, 10 μM substrate, 30° C., 60 minutes
T2 construct: purchased Enzo Life Science BML-SE456
Summary of the method: as §1

T2 sequence (Q13547 whole entry): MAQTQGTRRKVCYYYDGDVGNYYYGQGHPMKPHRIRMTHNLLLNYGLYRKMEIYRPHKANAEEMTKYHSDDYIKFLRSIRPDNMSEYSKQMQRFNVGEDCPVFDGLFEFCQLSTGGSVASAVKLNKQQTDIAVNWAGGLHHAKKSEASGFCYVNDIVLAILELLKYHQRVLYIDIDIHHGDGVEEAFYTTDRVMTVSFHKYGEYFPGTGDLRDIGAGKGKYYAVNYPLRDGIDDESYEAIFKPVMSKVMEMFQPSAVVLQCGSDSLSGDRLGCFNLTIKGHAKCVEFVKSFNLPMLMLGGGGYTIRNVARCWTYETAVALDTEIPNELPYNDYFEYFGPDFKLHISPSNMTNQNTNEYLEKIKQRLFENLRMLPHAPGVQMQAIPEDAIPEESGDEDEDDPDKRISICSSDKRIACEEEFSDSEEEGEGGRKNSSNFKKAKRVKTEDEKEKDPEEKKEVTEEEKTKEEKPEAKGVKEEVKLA

HDAC6 selectivity (fold) (human recombinant HDAC6)	IC50 (human recombinant HDAC6) [µM]	IC50 (human recombinant HDAC1) [µM]	Compound
7	4.33	30.9	CS(=O)(=O)N(Cc1ccc(-c2nnc(C(F)(F)F)o2)nn1)c1ccccc1 [Compound 11567, N-phenyl-N-((6-(5-(trifluoromethyl)-1,3,4-oxadiazol-2-yl)pyridazin-3-yl)methyl)methanesulfonamide]
1	2.29	2.54	CS(=O)(=O)N(Cc1cnc(-c2nnc(C(F)(F)F)o2)cn1)c1ccccc1 [Compound 11573, N-phenyl-N-((5-(5-(trifluoromethyl)-1,3,4-oxadiazol-2-yl)pyrazin-2-yl)methyl)methanesulfonamide]
3349	0.02	67	CN1CCC(S(=O)(=O)N(Cc2ccc(-c3nnc(C(F)F)o3)cc2)c2ccccc2)CC1 [Compound 11637, N-(4-(5-(difluoromethyl)-1,3,4-oxadiazol-2-yl)benzyl)-1-methyl-N-phenylpiperidine-4-sulfonamide]
1778	0.023	40.9	CC(C)N1CCC(S(=O)(=O)N(Cc2ccc(-c3nnc(C(F)F)o3)cc2)c2ccccc2)CC1 [Compound 11638, N-(4-(5-(difluoromethyl)-1,3,4-oxadiazol-2-yl)benzyl)-1-isopropyl-N-phenylpiperidine-4-sulfonamide]
1849	0.042	77.7	O=S(=O)(C1CCN(C2CCC2)CC1)N(Cc1ccc(-c2nnc(C(F)F)o2)cc1)c1ccccc1 [Compound 11639, 1-cyclobutyl-N-(4-(5-(difluoromethyl)-1,3,4-oxadiazol-2-yl)benzyl)-N-phenylpiperidine-4-sulfonamide]
1277	0.061	77.9	O=S(=O)(CCN1CCCC1)N(Cc1ccc(-c2nnc(C(F)F)o2)cc1)c1ccccc1 [Compound 11645, N-(4-(5-(difluoromethyl)-1,3,4-oxadiazol-2-yl)benzyl)-N-phenyl-2-(pyrrolidin-1-yl)ethane-1-sulfonamide]
7254	0.015	109	C[C@@H]1CN(CCS(=O)(=O)N(Cc2ccc(-c3nnc(C(F)F)o3)cc2)c2ccccc2)C[C@H](C)N1C [Compound 11646, N-(4-(5-(difluoromethyl)-1,3,4-oxadiazol-2-yl)benzyl)-N-phenyl-2-((3S,5R)-3,4,5-trimethylpiperazin-1-yl)ethane-1-sulfonamide]
3626	0.022	79.8	O=S(=O)(CCCN1CCCC1)N(Cc1ccc(-c2nnc(C(F)F)o2)cc1)c1ccccc1 [Compound 11647, N-(4-(5-(difluoromethyl)-1,3,4-oxadiazol-2-yl)benzyl)-N-phenyl-3-(pyrrolidin-1-yl)propane-1-sulfonamide]
8300	0.06	498	CS(=O)(=O)N1CCN(CCCS(=O)(=O)N(Cc2ccc(-c3nnc(C(F)F)o3)cc2)c2ccccc2)CC1 [Compound 11648, N-(4-(5-(difluoromethyl)-1,3,4-oxadiazol-2-yl)benzyl)-3-(4-(methylsulfonyl)piperazin-1-yl)-N-phenylpropane-1-sulfonamide]
975	0.056	54.6	O=C(c1cncn1CCS(=O)(=O)N(Cc1ccc(-c2nnc(C(F)F)o2)cc1)c1ccccc1)C(F)F [Compound 11678, 2-(5-(2,2-difluoroacetyl)-1H-imidazol-1-yl)-N-(4-(5-(difluoromethyl)-1,3,4-oxadiazol-2-yl)benzyl)-N-phenylethane-1-sulfonamide]
2666	0.023	61.3	O=S(=O)(CCN1CCN(CCCO)CC1)N(Cc1ccc(-c2nnc(C(F)F)o2)cc1)c1ccccc1 [Compound 11679, N-(4-(5-(difluoromethyl)-1,3,4-oxadiazol-2-yl)benzyl)-2-(4-(3-hydroxypropyl)piperazin-1-yl)-N-phenylethane-1-sulfonamide]
2634	0.029	76.4	O=S(=O)(C1CCN(C2COC2)CC1)N(Cc1ccc(-c2nnc(C(F)F)o2)cc1)c1ccccc1 [Compound 11680, N-(4-(5-(difluoromethyl)-1,3,4-oxadiazol-2-yl)benzyl)-1-(oxetan-3-yl)-N-phenylpiperidine-4-sulfonamide]
654	0.0921	60.3	Cc1cccc(N(Cc2ccc(-c3nnc(C(F)F)o3)cn2)S(=O)(=O)C2CCN(C3CC4CCC3C4)CC2)c1 (stereo not drawn) [Compound 11686, 1-(bicyclo[2.2.1]heptan-2-yl)-N-((5-(5-(difluoromethyl)-1,3,4-oxadiazol-2-yl)pyridin-2-yl)methyl)-N-(m-tolyl)piperidine-4-sulfonamide]
741	0.107	79.1	Cc1cccc(N(Cc2ccc(-c3nnc(C(F)F)o3)cn2)S(=O)(=O)C2CCN(C3CCC(F)(F)CC3)CC2)c1 [Compound 11687, 1-(4,4-difluorocyclohexyl)-N-((5-(5-(difluoromethyl)-1,3,4-oxadiazol-2-yl)pyridin-2-yl)methyl)-N-(m-tolyl)piperidine-4-sulfonamide]
423	0.0477	20.2	Cc1cccc(N(Cc2ccc(-c3nnc(C(F)F)o3)cn2)S(=O)(=O)C2CCN([C@H]3CC[C@H](F)CC3)CC2)c1 [Compound 11688, N-((5-(5-(difluoromethyl)-1,3,4-oxadiazol-2-yl)pyridin-2-yl)methyl)-1-((1r,4r)-4-fluorocyclohexyl)-N-(m-tolyl)piperidine-4-sulfonamide]
429	0.0466	20	Cc1cccc(N(Cc2ccc(-c3nnc(C(F)F)o3)cn2)S(=O)(=O)C2CCN([C@H]3CC[C@@H](F)CC3)CC2)c1 [Compound 11689, N-((5-(5-(difluoromethyl)-1,3,4-oxadiazol-2-yl)pyridin-2-yl)methyl)-1-((1s,4s)-4-fluorocyclohexyl)-N-(m-tolyl)piperidine-4-sulfonamide]
244	0.225	54.8	Cc1cccc(N(Cc2ccc(-c3nnc(C(F)F)o3)cn2)S(=O)(=O)C2CCN([C@H]3CC[C@H](C(F)(F)F)CC3)CC2)c1 [Compound 11690, N-((5-(5-(difluoromethyl)-1,3,4-oxadiazol-2-yl)pyridin-2-yl)methyl)-N-(m-tolyl)-1-((1r,4r)-4-(trifluoromethyl)cyclohexyl)piperidine-4-sulfonamide]
425	0.0805	34.2	Cc1cccc(N(Cc2ccc(-c3nnc(C(F)F)o3)cn2)S(=O)(=O)C2CCN([C@H]3CC[C@@H](C(F)(F)F)CC3)CC2)c1 [Compound 11691, N-((5-(5-(difluoromethyl)-1,3,4-oxadiazol-2-yl)pyridin-2-yl)methyl)-N-(m-tolyl)-1-((1s,4s)-4-(trifluoromethyl)cyclohexyl)piperidine-4-sulfonamide]
1309	0.0547	71.7	Cc1cccc(N(Cc2ccc(-c3nnc(C(F)F)o3)cn2)S(=O)(=O)C2CCN(C3CCOCC3)CC2)c1 [Compound 11692, N-((5-(5-(difluoromethyl)-1,3,4-oxadiazol-2-yl)pyridin-2-yl)methyl)-1-(tetrahydro-2H-pyran-4-yl)-N-(m-tolyl)piperidine-4-sulfonamide]
306	0.2	61.4	Cc1cccc(N(Cc2ccc(-c3nnc(C(F)F)o3)cc2)S(=O)(=O)C2CCN([C@H]3CC[C@H](F)CC3)CC2)c1 [Compound 11695, N-(4-(5-(difluoromethyl)-1,3,4-oxadiazol-2-yl)benzyl)-1-((1r,4r)-4-fluorocyclohexyl)-N-(m-tolyl)piperidine-4-sulfonamide]
